Experimental findings from ChEMBL document CHEMBL3792353, “Differentiation of ROMK potency from hERG potency in the phenacetyl piperazine series through heterocycle incorporation” (Bioorg Med Chem Lett, 2016) are described below.

Molecules are shown by their SMILES. Some results are limits rather than exact numbers.

What all share (details): in vivo
The test system of one data set is Rattus norvegicus. Kind of data set: Dose normalized AUC in Sprague-Dawley rat at 2 mg/kg, po. The data set is classed as ADME, organism-based.
Data set [1] in a line: Half life of compound in Sprague-Dawley rat at 1 mg/kg, iv and 2 mg/kg, po. The data set is classed as ADME, organism-based.
Data set [2] is described as follows: Half life of compound in rhesus monkey at 0.25 mg/kg, iv and 0.5 mg/kg, po. The data set is classed as ADME, organism-based, Macaca mulatta.
In a further data set the test system is Rhesus monkey. Put plainly: Dose normalized AUC in rhesus monkey at 0.5 mg/kg, po. Format: ADME, organism-based, Macaca mulatta.
Data set [3] is described as follows: Oral bioavailability in Sprague-Dawley rat at 2 mg/kg. Format: ADME, organism-based.
The next data set relates to Canis familiaris. Kind of data set: fCmax in vagotomized beagle dog at 10 mg/kg, iv administered as cumulative dose. The data set is classed as ADME, organism-based, Canis lupus familiaris.
Data set [4] is described as follows: Half life of compound in beagle dog at 0.5 mg/kg, iv. The data set is classed as ADME, organism-based, Canis lupus familiaris.
Data set [5] is described as follows: Oral bioavailability in rhesus monkey at […]. The data set is classed as ADME, organism-based, Macaca mulatta.

Take `O=C1OCc2cc(CCN3CCN(C(=O)Cc4ccc(-n5cnnn5)cc4)CC3)ccc21`: in the data set on Rattus norvegicus, the AUC/dose came to 0.067 µM·kg·h/mg. Moreover, in data set [1], the half-life – broadly, the time needed for the level to fall by half in the phase considered – is 9.6 min.
Regarding `Cc1c(CCN2CCN(C(=O)Cc3ccc(-n4cnnn4)nc3)CC2)ccc2c1COC2=O`, the half-life was 66 min in data set [2], 78 min in data set [4] and 26.4 min in data set [1]. The figures for the AUC/dose in the data set with Rhesus monkey and in the data set with Rattus norvegicus were 0.001 µM·kg·h/mg and 0.84 µM·kg·h/mg, respectively. For the same compound, the figures for the bioavailability in data set [3] and in data set [5] were 38% and less than 1%, respectively. For the same compound, in the data set with Canis familiaris, the fCmax came to 21 µM.
On to `Cc1cc(-n2cnnn2)cnc1CC(=O)N1CCN(CCc2ccc3c(c2C)COC3=O)CC1`, for which the bioavailability (as a rule, dose-corrected exposure relative to a reference, in per cent) in data set [3] turned out to be 18%. In addition, the AUC/dose in the data set on Rattus norvegicus turned out to be 0.35 µM·kg·h/mg. Besides, the half-life in data set [1] was 19.8 min.
On the same counts, the results for `Cc1c(C(F)CN2CCN(C(=O)Cc3ccc(-n4cnnn4)nc3)CC2)ccc2c1COC2=O` (racemic) are 46%, 0.31 µM·kg·h/mg and 21 min.
The like results for `Cc1c(C(C)CN2CCN(C(=O)Cc3ccc(-n4cnnn4)nc3)CC2)ccc2c1COC2=O` (racemic) were, in that order, 25%, 0.45 µM·kg·h/mg and 57.6 min.
